# “Also recorded” adds a separate entry of the source.
# Key:
# Tdp1 = Tdp1 (Homo sapiens, UniProt Q9NUW8); experiment: Real-time detection of Tdp1 activity (fluorophore-quencher oligonucleotide biosensor); format: biochemical; conditions: 1.5 nM purified Tdp1, 50 nM biosensor, 26 °C, three independent experiments; read-out: IC50 (inhibition of Tdp-1)
# Source text: Previously, we designed a real-time oligonucleotide biosensor based on the capability of Tdp1 to remove fluorophore quenchers from the 3′ end of DNA [27]. The single-stranded substrate was a 16-mer oligonucleotide containing both a 5′-FAM fluorophore donor and a quenching 3′-BHQ moiety. When the quencher is removed by Tdp1, FAM fluorescence flares up and can be detected by a fluorimeter. Fluorescence intensity diminishes in the presence of an inhibitor; curves of the obtained Tdp1 activity versus inhibitor concentration can be used to calculate IC50 values. We also investigated some structurally related compounds obtained by previously developed methods; these compounds feature a modification either in a carbohydrate or heterocyclic moiety (Table 1).
# This procedure was reported in our previous work. The approach consists of fluorescence intensity measurement in a reaction of quencher removal from a fluorophore quencher–coupled DNA oligonucleotide catalyzed by Tdp1 in the presence of an inhibitor (the control samples contained 1% of DMSO). The reaction mixtures (200 μL) contained Tdp1 buffer (50 mM Tris-HCl pH 8.0, 50 mM NaCl, and 7 mM β-mercaptoethanol), 50 nM biosensor, an inhibitor being tested, and purified Tdp1 (1.5 nM). The biosensor was a single-stranded oligonucleotide (5′-[FAM] AAC GTC AGGGTC TTC C [BHQ]-3′) containing a fluorophore at the 5′ end (5,6-FAM) and Black Hole Quencher 1 (BHQ) at the 3′ end and was synthesized in the Laboratory of Biomedical Chemistry at the Institute of Chemical Biology and Fundamental Medicine (Novosibirsk, Russia).
# The reactions were incubated at a constant temperature of 26 °C on a POLARstar OPTIMA fluorimeter (BMG LABTECH, GmbH, Ortenberg, Germany) to measure fluorescence every 55 s (ex. 485/em. 520 nm) during the linear phase (here, data from minute 0 to minute 8). The values of IC50 were determined using a six-point concentration response curve in three independent experiments and were calculated using MARS Data Analysis 2.0 (BMG LABTECH).
# [1] = Intrinsic cytotoxicity, EZ4U Cell Proliferation and Cytotoxicity Assay; format: cell-based, human; conditions: human, HeLa cells (cervical cancer), 3 days, EZ4U assay
# Protocol: (§1) First, we assessed the toxicity of the compounds to HeLa cells (cervical cancer cells). Analysis of the intrinsic cytotoxicity of the compounds was examined in the EZ4U Cell Proliferation and Cytotoxicity Assay (Biomedica, Austria). The tested compounds were added to the medium (the volume of added reagents was 1/100 of the total volume of the culture medium, and the amount of DMSO (dimethyl sulfoxide) was 1% of the final volume), and the cell culture was monitored for 3 days. Control cells were grown in the presence of 1% DMSO. Intrinsic cytotoxicity of the compounds was either absent or negligible at concentrations up to 100 μM (>80% live cells) with the exception of compounds 2b, 2c, and 7, in the presence of which, at a concentration of 100 μM, 30–45% of the cells died (Table 1 and Figure 1).
# (§2) Intrinsic toxicity of the compounds to human cell line HeLa (cervical cancer) was examined by means of the EZ4U Cell Proliferation and Cytotoxicity Assay (Biomedica, Wien, Austria), according to the manufacturer’s protocols. The cells were grown in Iscove’s modified Dulbecco’s medium (IMDM) with 40 μg/mL gentamicin, 50 IU/mL penicillin, 50 μg/mL streptomycin (MP Biomedicals), and 10% of fetal bovine serum (Biolot) in a 5% CO2 atmosphere. After formation of a 30–50%-confluent monolayer, one of the tested compounds was added to the medium (the volume of the added reagents was 1/100 of the total volume of the culture medium, and the amount of DMSO was 1% of the final volume), and the cell culture was monitored for 3 days. Control cells were grown in the presence of 1% DMSO. To assess the influence of the inhibitors on the cytotoxic effect of topotecan, the latter from the manufacturer ACTAVIS GROUP PTC ehf. (Bucharest, Romania) was used. First of all, 50% cytotoxic concentrations of topotecan and of each inhibitor were determined to attain a defined single-agent effect. Second, three independent tests were performed with each inhibitor in combination with topotecan.
# HeLa cells [2] = experiment: Cytotoxicity in combination with topotecan, EZ4U assay; format: cell-based; conditions: for change of cytotoxicity of the compound in the presence of topotecan (synergy): compound 1, 5, 20, 100 μM with 2 μM topotecan, Figure 2; for sensitizing effect on cytotoxicity of topotecan: Figure 3
# Protocol: To study the influence of the inhibitors on the cytotoxic effect of topotecan, the latter from the manufacturer ACTAVIS GROUP PTC ehf. was used. To select a nontoxic but effective concentration of the nucleoside compounds, we investigated their cytotoxicity in the presence of 2 μM topotecan (concentration causing the death of half the HeLa cells). Three independent cytotoxicity assays were performed with each inhibitor in combination with topotecan. For the cells treated with a nucleoside derivative alone, values in the control wells treated with 1% DMSO were set to 100% viability. For the cells treated with a combination of the drugs, the viability of cells treated only with topotecan was set to 100%.
# as §2
# HeLa cells [3] = experiment: Intrinsic cytotoxicity, EZ4U Cell Proliferation and Cytotoxicity Assay; format: cell-based, human; conditions: for cells died: compound at 100 μM, 3 days
# Protocol: as §1, §2
# [4] = compound at 20 μM, various doses of topotecan
# Sequence of Tdp1 (Q9NUW8 whole entry): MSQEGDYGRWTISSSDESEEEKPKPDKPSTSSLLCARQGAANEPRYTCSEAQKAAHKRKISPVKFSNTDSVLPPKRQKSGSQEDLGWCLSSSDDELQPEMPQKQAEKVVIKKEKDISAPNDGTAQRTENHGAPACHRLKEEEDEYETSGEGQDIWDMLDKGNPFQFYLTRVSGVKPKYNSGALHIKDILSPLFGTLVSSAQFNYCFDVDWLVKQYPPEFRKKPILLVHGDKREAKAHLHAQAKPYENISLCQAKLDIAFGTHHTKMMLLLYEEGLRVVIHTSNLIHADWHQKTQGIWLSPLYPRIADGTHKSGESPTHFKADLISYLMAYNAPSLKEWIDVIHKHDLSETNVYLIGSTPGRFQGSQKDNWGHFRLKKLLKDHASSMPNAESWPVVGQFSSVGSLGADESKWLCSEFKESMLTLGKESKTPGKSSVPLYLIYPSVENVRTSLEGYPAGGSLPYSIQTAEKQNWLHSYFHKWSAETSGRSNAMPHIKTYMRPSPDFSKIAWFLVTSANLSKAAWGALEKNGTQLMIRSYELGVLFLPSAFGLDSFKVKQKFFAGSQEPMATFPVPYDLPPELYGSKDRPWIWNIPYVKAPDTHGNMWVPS
SMILES,IC50 (Tdp1),CC50 at 3 days [1],change of cytotoxicity of the compound in the presence of topotecan (synergy) (HeLa cells [2]),further results
"O=c1[nH]c(=O)n([C@@H]2O[C@H](CO)[C@@H](O)[C@H]2O)cc1Br [Compound 1c, 5-bromouridine, reference compound]",> 50 µM,–,–,–
"O=C(OC[C@H]1O[C@@H](n2cccnc2=O)[C@H](OC(=O)c2ccccc2)[C@@H]1OC(=O)c1ccccc1)c1ccccc1 [Compound 6, 1-(2′,3′,5′-Tri-O-benzoyl-β-D-ribofuranosyl)-2-pyrimidone]",6 ± 0.7 µM,> 100 µM,statistically insignificant,–
"O=C(OC[C@H]1O[C@@H](n2ccc(=O)[nH]c2=O)[C@H](OC(=O)c2ccccc2)[C@@H]1OC(=O)c1ccccc1)c1ccccc1 [Compound 2a, 2′,3′,5′-tri-O-benzoyluridine]",6.3 ± 0.4 µM,–,Inactive,–
"Cc1cn([C@@H]2O[C@H](CO)[C@@H](O)[C@H]2O)c(=O)[nH]c1=O [Compound 1e, 5-Methyluridine (Ribothymidine), reference compound]",> 50 µM,–,–,–
"O=C(O[C@@H]1[C@H](OC(=O)c2ccccc2)[C@@H](CO)O[C@H]1n1ccc(=O)[nH]c1=O)c1ccccc1 [Compound 4a, 2′,3′-di-O-benzoyluridine]",23 ± 6 µM,> 100 µM,–,–
"O=C(OC[C@H]1O[C@@H](n2ccc(=O)nc2)[C@H](OC(=O)c2ccccc2)[C@@H]1OC(=O)c1ccccc1)c1ccccc1 [Compound 5, 1-(2′,3′,5′-Tri-O-benzoyl-β-D-ribofuranosyl)-4-pyrimidone]",18 ± 1 µM,–,"significant only at the maximum concentration, 100 μM; also recorded: at a concentration of 20 μM, no synergy with topotecan was observed; also recorded: enhanced the cytotoxicity","sensitizing effect on cytotoxicity of topotecan (HeLa cells [2]; compound at 50 μM, various doses of topotecan (significant at 10 μM)): weak sensitizing effect"
"Cc1cc(=O)[nH]c(=O)n1[C@@H]1O[C@H](COC(=O)c2ccccc2)[C@@H](OC(=O)c2ccccc2)[C@H]1OC(=O)c1ccccc1 [Compound 2g, 2′,3′,5′-Tri-O-benzoyl-6-methyluridine]",3.4 ± 0.2 µM,> 100 µM,"significantly (p = 0.05, Mann–Whitney U test) enhanced; also recorded: synergistic effect with topotecan; also recorded: enhanced the cytotoxicity",sensitizing effect on cytotoxicity of topotecan (HeLa cells [2]; [4]): doubled the cytotoxicity of topotecan; also recorded: doubling topotecan’s activity
"COc1ccn([C@@H]2O[C@H](COC(=O)c3ccccc3)[C@@H](OC(=O)c3ccccc3)[C@H]2OC(=O)c2ccccc2)c(=O)n1 [Compound 7, 2′,3′,5′-Tri-O-benzoyl-2-oxo-4-metoxypyrimidine]",2.91 ± 0.01 µM,> 100 µM,"significantly (p = 0.05, Mann–Whitney U test) enhanced; also recorded: synergistic effect with topotecan; also recorded: enhanced the cytotoxicity",cells died (HeLa cells [3]): 30–45%; sensitizing effect on cytotoxicity of topotecan (HeLa cells [2]; [4]): doubled the cytotoxicity of topotecan; also recorded: doubling topotecan’s activity
"Cc1cn([C@@H]2O[C@H](COC(=O)c3ccccc3)[C@@H](OC(=O)c3ccccc3)[C@H]2OC(=O)c2ccccc2)c(=O)[nH]c1=O [Compound 2e, 2′,3′,5′-Tri-O-benzoyl-5-methyluridine]",2.7 ± 0.6 µM,> 100 µM,Inactive,–
"O=C(OC[C@H]1O[C@@H](n2ccc(=O)[nH]c2=O)[C@H](O)[C@@H]1O)c1ccccc1 [Compound 3a, 5′-O-benzoyluridine]",> 100 µM,–,–,–
"O=c1ccn([C@@H]2O[C@H](CO)[C@@H](O)[C@H]2O)c(=O)[nH]1 [Compound 1a, Uridine, reference compound]",> 50 µM,–,–,–
"O=C(OCC1OC(n2cc(Cl)c(=O)[nH]c2=O)C(OC(=O)c2ccccc2)C1OC(=O)c1ccccc1)c1ccccc1 (stereo not shown) [Compound 2f, 2′,3′,5′-Tri-O-benzoyl-5-chlorouridine]",3.6 ± 1.1 µM,> 100 µM,Inactive,–
"CC(=O)O[C@@H]1O[C@H](COC(=O)c2ccccc2)[C@@H](OC(=O)c2ccccc2)[C@H]1OC(=O)c1ccccc1 [Compound 9, 1-O-acetyl-2,3,5-tri-O-Bz-β-D-Rib]",4.2 ± 0.3 µM,–,–,–
"O=c1[nH]c(=O)n([C@@H]2O[C@H](CO)[C@@H](O)[C@H]2O)cc1I [Compound 1d, 5-Iodouridine, reference compound]",> 50 µM,–,–,–
"CC[C@@]1(O)C(=O)OCc2c1cc1n(c2=O)Cc2cc3c(CN(C)C)c(O)ccc3nc2-1 [topotecan, reference compound]",–,–,–,"IC50 (HeLa cells [3]; Homo sapiens, EZ4U assay, read-out: concentration causing the death of half the HeLa cells): 2 µM"
"O=C(OCC1OC(n2cc(F)c(=O)[nH]c2=O)C(OC(=O)c2ccccc2)C1OC(=O)c1ccccc1)c1ccccc1 (stereo not shown) [Compound 2b, 2′,3′,5′-Tri-O-benzoyl-5-fluorouridine]",8.5 ± 1.4 µM,> 100 µM,Inactive,cells died (HeLa cells [3]): 30–45%
"Nc1ccn([C@@H]2O[C@H](COC(=O)c3ccccc3)[C@@H](OC(=O)c3ccccc3)[C@H]2OC(=O)c2ccccc2)c(=O)n1 [Compound 8, 2′,3′,5′-tri-O-benzoylcytidine]",4.3 ± 0.7 µM,> 100 µM,"significantly (p = 0.05, Mann–Whitney U test) enhanced; also recorded: synergistic effect with topotecan; also recorded: enhanced the cytotoxicity",sensitizing effect on cytotoxicity of topotecan (HeLa cells [2]; [4]): doubled the cytotoxicity of topotecan; also recorded: doubling topotecan’s activity
"O=c1[nH]c(=O)n([C@@H]2O[C@H](CO)[C@@H](O)[C@H]2O)cc1Cl [Compound 1f, 5-Chlorouridine, reference compound]",> 50 µM,–,–,–
"O=C(OC[C@H]1O[C@@H](n2cc(Br)c(=O)[nH]c2=O)[C@H](OC(=O)c2ccccc2)[C@@H]1OC(=O)c1ccccc1)c1ccccc1 [Compound 2c, 2′,3′,5′-Tri-O-benzoyl-5-bromouridine]",1.5 ± 0.9 µM,> 100 µM,Inactive,cells died (HeLa cells [3]): 30–45%
"O=C(OC[C@H]1O[C@@H](n2cc(I)c(=O)[nH]c2=O)[C@H](OC(=O)c2ccccc2)[C@@H]1OC(=O)c1ccccc1)c1ccccc1 [Compound 2d, 2′,3′,5′-tri-O-benzoyl-5-iodouridine]",0.6 ± 0.9 µM,> 100 µM,Inactive,–
"O=c1[nH]c(=O)n([C@@H]2O[C@H](CO)[C@@H](O)[C@H]2O)cc1F [Compound 1b, 5-Fluorouridine, reference compound]",> 50 µM,–,–,–
